Measured values published in ChEMBL document CHEMBL4219225, “Practical application of ligand efficiency metrics in lead optimisation” (Bioorg Med Chem, 2018).
In brackets after ≈: the same amount, converted by molar mass.

Experiments:
[1] = Apparent permeability in MDCK cells; type: ADME, cell-based, Canis lupus familiaris; conditions: dog
[2] = Solubility of the compound at pH 7.4; type: physicochemical; conditions: buffer
[3] = biological target: Voltage-gated inwardly rectifying potassium channel KCNH2 (Homo sapiens, UniProt Q12809); assay: Inhibition of human ERG
[4] = biological target: T1, Glucose-dependent insulinotropic receptor (Homo sapiens, UniProt Q8TDV5); assay: Agonist activity at GPR119 (unknown origin); type: functional
T1 sequence (Q8TDV5 whole entry): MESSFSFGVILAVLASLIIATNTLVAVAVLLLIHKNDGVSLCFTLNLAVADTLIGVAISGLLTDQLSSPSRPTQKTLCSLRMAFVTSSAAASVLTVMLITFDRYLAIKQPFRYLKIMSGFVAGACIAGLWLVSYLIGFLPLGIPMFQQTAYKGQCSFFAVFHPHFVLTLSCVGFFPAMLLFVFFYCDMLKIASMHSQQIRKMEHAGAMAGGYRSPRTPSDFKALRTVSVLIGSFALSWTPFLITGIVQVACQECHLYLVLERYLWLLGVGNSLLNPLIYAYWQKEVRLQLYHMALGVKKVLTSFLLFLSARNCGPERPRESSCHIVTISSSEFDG

Chain of Voltage-gated inwardly rectifying potassium channel KCNH2 (Q12809 whole entry): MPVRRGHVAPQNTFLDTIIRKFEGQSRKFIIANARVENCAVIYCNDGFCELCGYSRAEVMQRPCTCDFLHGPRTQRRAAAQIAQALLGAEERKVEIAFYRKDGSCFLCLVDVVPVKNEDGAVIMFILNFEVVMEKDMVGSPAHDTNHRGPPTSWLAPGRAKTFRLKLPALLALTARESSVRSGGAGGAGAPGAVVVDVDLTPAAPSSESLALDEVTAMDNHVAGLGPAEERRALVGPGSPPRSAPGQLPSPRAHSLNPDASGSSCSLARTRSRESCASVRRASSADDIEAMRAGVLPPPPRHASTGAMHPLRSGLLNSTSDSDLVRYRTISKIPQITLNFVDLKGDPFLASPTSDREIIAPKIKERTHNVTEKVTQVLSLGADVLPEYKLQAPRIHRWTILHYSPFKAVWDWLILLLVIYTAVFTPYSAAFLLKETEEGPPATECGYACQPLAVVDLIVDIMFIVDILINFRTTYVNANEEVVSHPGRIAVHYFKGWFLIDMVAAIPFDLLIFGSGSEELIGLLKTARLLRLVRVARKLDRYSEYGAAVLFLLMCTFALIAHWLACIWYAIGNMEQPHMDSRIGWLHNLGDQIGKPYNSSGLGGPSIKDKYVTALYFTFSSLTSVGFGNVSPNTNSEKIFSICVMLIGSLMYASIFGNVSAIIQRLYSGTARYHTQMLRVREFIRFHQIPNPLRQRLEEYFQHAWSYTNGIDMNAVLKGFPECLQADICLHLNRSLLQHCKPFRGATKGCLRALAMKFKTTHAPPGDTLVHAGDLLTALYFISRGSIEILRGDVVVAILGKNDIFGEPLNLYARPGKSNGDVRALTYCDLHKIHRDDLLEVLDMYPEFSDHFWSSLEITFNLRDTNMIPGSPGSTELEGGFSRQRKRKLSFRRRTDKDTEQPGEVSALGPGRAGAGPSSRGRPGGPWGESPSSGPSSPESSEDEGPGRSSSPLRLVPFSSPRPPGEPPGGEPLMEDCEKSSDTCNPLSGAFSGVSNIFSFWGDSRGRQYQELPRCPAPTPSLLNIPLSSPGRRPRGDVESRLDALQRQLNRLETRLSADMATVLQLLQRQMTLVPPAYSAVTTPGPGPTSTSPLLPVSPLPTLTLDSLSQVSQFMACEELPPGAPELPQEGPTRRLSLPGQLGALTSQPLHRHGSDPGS

Papp [1]	solubility [2]	EC50 [4]	SMILES	IC50 [3]
14 ×10⁻⁶ cm/s			Cc1nc(C)c(-c2ccc(-c3ccc([C@H](C)C(=O)O)cc3Cl)c(F)c2)nc1C(N)=O	
7.4 ×10⁻⁶ cm/s			Cc1nc(C)c(-c2ccc(-c3ccc(CC(=O)O)cc3)c(Cl)c2)nc1C(N)=O	
	3.1 µM (≈ 1.34 µg/mL)	0.002 µM	N#Cc1cnccc1COc1cnc(N2CCN(c3noc(C(F)(F)F)n3)CC2)nc1	6.31 µM
	4800 µM (≈ 2080 µg/mL)	0.00501 µM	N#Cc1cnccc1COc1cnc(N2CCN(c3nc(C(F)(F)F)no3)CC2)nc1	6.31 µM
	120 µM (≈ 51.9 µg/mL)	0.0251 µM	N#Cc1cnccc1COc1cnc(N2CCN(c3nnc(C(F)(F)F)o3)CC2)nc1	20 µM
